According to patent publication US11285218B2, “Degradation of bromodomain-containing protein 9 (BRD9) by conjugation of BRD9 inhibitors with E3 ligase ligand and methods of use” (Dana-Farber Cancer Institute, Inc., priority 2016, dated 2022):
“Also recorded” adds a separate entry of the source.

Assays:
[1] = target: T1, BRD9 (Homo sapiens, UniProt Q9H8M2); assay: BRD9-ligand displacement AlphaScreen; format: binding
T1 construct: A construct of human BRD9 covering residues 134-0245 in the pET28PP vector; made in house; host or cells: E. coli BL21 (DE3)
T1 sequence (Q9H8M2 134-245 limits assumed): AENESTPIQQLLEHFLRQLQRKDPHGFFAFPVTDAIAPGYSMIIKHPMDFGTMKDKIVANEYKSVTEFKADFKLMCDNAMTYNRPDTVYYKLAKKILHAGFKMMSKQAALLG
Method: BRD9 assays were performed with minimal modifications from the manufacturer's protocol (PerkinElmer, USA). All reagents were diluted in 50 mM HEPES, 150 mM NaCl, 0.1% w/v BSA, 0.01% w/v Tween20, pH 7.5. […] Plates were spun down at 150×g, and 100 nL of DMSO compound stock was added from pre-diluted plates by pin transfer using a Janus Workstation (PerkinElmer, USA). Under low light, a 2× suspension of Ni-coated Acceptor Beads and Streptavidin Donor Beads, was then added at 10 ul/well to a final concentration of 5 μg/ml by EL406 automated liquid handler (Biotek, USA).

[2] = target: T2, CRBN-DDB1 (Homo sapiens, UniProt Q96SW2); assay: CRBN-DDB1 ligand-displacement AlphaScreen; format: binding; conditions: purified CRBN-DDB1 ligand displacement
T2 construct: made in house; host or cells: Sf9 cells (Invitrogen)
Method: Following a 30 min incubation, 20 uL detection solution containing Streptavidin Donor Beads and Nickel Chelate AlphaLISA® Acceptor Beads diluted to 20 ng/uL in assay buffer was added to each well.

[3] = test system: 32 members of the human bromodomain family; assay: BromoScan single-point screen, panel profile; format: binding; conditions: single-point 1 μM, 32 bromodomains; in words
Text: (§1) The BromoScan is an assay that measures the engagement of compounds with bromodomain proteins by utilizing DNA-tagged bromodomain and immobilized ligand attached to solid support. In the control test, DNA-tagged bromodomain binds to the ligand and the bromodomain is captured on the solid support. Compounds that compete for the bromodomain binding location on the ligand will prevent the bromodomain from binding, resulting in less protein captured on the solid support.

[4] = target: T3, BRD1 (Homo sapiens, UniProt O95696); assay: BromoScan single-point screen; format: binding; conditions: percent of protein captured on solid support vs control
T3 construct: utilizing DNA-tagged bromodomain and immobilized ligand attached to solid support
Text: as §1

[5] = target: T4, BRD3(1) (Homo sapiens, UniProt Q15059); assay: BromoScan single-point screen; format: binding; conditions: percent of protein captured on solid support vs control
T4 construct: utilizing DNA-tagged bromodomain and immobilized ligand attached to solid support
Text: as §1

[6] = target: T5, BRD7 (Homo sapiens, UniProt Q9NPI1); assay: BromoScan single-point screen; format: binding; conditions: percent of protein captured on solid support vs control
T5 construct: utilizing DNA-tagged bromodomain and immobilized ligand attached to solid support
Text: as §1

[7] = target: T6, SMARCA2 (Homo sapiens, UniProt P51531); assay: BromoScan single-point screen; format: binding; conditions: percent of protein captured on solid support vs control
T6 construct: utilizing DNA-tagged bromodomain and immobilized ligand attached to solid support
Text: as §1

[8] = target: T7, SMARCA4 (Homo sapiens, UniProt P51532); assay: BromoScan single-point screen; format: binding; conditions: percent of protein captured on solid support vs control
T7 construct: utilizing DNA-tagged bromodomain and immobilized ligand attached to solid support
Text: as §1

[9] = target: T8, TRIM24 (PHD, Bromo.) (Homo sapiens, UniProt O15164); assay: BromoScan single-point screen; format: binding; conditions: percent of protein captured on solid support vs control
T8 construct: utilizing DNA-tagged bromodomain and immobilized ligand attached to solid support
Text: as §1

[10] = target: T9, BRD9 (Homo sapiens, UniProt Q9H8M2); assay: BRD9 immunoblot in MOLM-13
T9 sequence (Q9H8M2 1-597): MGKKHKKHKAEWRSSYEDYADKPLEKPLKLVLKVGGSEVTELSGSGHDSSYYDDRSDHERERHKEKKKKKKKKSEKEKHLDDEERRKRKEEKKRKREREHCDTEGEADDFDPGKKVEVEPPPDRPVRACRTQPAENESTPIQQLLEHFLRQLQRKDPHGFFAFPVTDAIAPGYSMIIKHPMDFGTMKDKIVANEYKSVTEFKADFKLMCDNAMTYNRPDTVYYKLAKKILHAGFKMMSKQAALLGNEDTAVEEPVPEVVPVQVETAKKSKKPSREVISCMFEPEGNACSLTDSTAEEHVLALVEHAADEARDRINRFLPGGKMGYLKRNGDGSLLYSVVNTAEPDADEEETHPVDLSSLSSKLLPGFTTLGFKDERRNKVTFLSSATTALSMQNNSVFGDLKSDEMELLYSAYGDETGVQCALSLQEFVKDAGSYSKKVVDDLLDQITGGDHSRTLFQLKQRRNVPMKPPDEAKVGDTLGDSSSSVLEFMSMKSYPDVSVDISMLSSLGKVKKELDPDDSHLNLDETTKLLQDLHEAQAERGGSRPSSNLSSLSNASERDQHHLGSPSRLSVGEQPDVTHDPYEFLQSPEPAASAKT
Method: (§2) In additional experiments, cells were washed with PBS, before being lysed in RIPA buffer supplemented with 1×HALT™ protease inhibitor cocktail (Thermo Scientific) for 10 min on ice, followed by low-amplitude sonication for 10 seconds at 4° C. […] In soluble material was removed by centrifugation at 20,000×g for 20 min before protein content was quantified by BCA assay (Pierce). […] Blots were imaged using fluorescence-labeled secondary antibodies (LI-COR) on the OdysseyCLxImager (LI-COR).

[11] = target: BRD4 (Homo sapiens, UniProt O60885); assay: BRD4 immunoblot in MOLM-13; conditions: MOLM-13, 4 hour treatment
Method: In additional experiments, cells were washed with PBS, before being lysed in RIPA buffer supplemented with 1×HALT™ protease inhibitor cocktail (Thermo Scientific) for 10 min on ice, followed by low-amplitude sonication for 10 seconds at 4° C. (Q125, QSonica, USA). In soluble material was removed by centrifugation at 20,000×g for 20 min before protein content was quantified by BCA assay (Pierce). […] Blots were imaged using fluorescence-labeled secondary antibodies (LI-COR) on the OdysseyCLxImager (LI-COR).

[12] = target: T9, BRD9; assay: BRD9 immunoblot in MM1S cells
Method: as §2

[13] = test system: MM.1S multiple myeloma line; assay: ATPlite viability assay, MM.1S; conditions: 72 hour treatment, in words
Method: 500 cells/well were plated at a volume of 40 μL/well in white tissue culture treated 384 well assay plates (Thermo Scientific) before DMSO compound stock was added from pre-diluted plates by pin transfer using a Janus Workstation (PerkinElmer, USA). […] Assay plates were allowed to equilibrate to RT for 30 min before reconstituted ATPlite 1 Step reagent (Perkin Elmer) was dispensed at 1:1 volume/well by EL406 automated liquid handler (Biotek, USA).

[14] = target: BRD9:CRBN-DDB1 protein complex (Homo sapiens, UniProt Q96SW2+Q9H8M2); assay: BRD9:CRBN-DDB1 dimerization assay (luminescence); conditions: for formation of the BRD9:CRBN-DDB1 protein complex: in words
Method: To measure this activity, a homogenous luminescence assay was developed to report on compound-induced proximity of BRD9 and CRBN.
(§3) To detect CRBN-DDBI/BRD4 dimerization, we adapted bead-based AlphaScreen technology. […] Compounds were then pinned at 100 nL per well from DMSO stock. After 1 incubation at room temperature. Nickel Chelate AlphaLISA Acceptor and Glutathione AlphaLISA Donor beads (PerkinElmer) were diluted in assay buffer to 20 μg/mL and added at 20 μl per well.

[15] = target: BRD4:CRBN-DDB1 protein complex (Homo sapiens, UniProt O60885+Q96SW2); assay: CRBN-DDB1/BRD4 dimerization assay (luminescence); conditions: in words
Method: as §3

[16] = target: T9, BRD9; assay: BRD9 degradation / cellular activity (Western blot, cell line not stated); conditions: cell line not given
[17] = target: T10, BRD4(1) (Homo sapiens, UniProt O60885); assay: BromoScan single-point screen; format: binding; set-up: utilizing DNA-tagged bromodomain and immobilized ligand attached to solid support; conditions: percent of protein captured on solid support vs control
Text: as §1

[18] = target: T10, BRD4(1); assay: BRD4(1) ligand-displacement AlphaScreen; format: binding; set-up: substituting protein and biotin-probe components for BRD4(1) protein at 20 nM final; His tag (inferred from Ni-coated acceptor beads)
[19] = MMIS cells, 4 hours pretreatment, then 100 nM
[20] = luminescence detection of dimerization assay

T3 sequence (O95696 562-666 limits assumed): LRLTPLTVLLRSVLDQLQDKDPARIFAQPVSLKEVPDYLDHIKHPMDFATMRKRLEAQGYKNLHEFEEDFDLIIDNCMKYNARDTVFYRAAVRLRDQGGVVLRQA
T4 sequence (Q15059 34-140 limits assumed): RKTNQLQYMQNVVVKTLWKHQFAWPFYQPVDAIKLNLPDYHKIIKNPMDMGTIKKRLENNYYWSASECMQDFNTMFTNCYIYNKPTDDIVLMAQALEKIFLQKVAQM
T5 sequence (Q9NPI1 131-235 limits assumed): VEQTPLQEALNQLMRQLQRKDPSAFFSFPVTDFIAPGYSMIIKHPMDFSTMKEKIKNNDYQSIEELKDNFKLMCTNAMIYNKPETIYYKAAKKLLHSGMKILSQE
T6 sequence (P51531 1378-1506 limits assumed): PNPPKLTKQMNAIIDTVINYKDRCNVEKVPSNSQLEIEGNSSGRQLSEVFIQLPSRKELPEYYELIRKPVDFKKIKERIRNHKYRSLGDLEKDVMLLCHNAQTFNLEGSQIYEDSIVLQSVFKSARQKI
T7 sequence (P51532 1453-1564 limits assumed): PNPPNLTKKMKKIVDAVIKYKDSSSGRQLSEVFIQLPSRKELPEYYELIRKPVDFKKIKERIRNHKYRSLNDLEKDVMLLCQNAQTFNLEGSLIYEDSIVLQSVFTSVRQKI
T8 sequence (O15164 824-1006 limits assumed): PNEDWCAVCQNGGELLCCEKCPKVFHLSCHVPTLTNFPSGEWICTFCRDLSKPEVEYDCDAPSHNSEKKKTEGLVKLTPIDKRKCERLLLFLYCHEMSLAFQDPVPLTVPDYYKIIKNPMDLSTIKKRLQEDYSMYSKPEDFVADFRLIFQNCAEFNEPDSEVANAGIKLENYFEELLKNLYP

COc1cc(-c2cn(C)c(=O)c3cc(C(=N)NC4CCS(=O)(=O)CC4)sc23)ccc1OCC(=O)NCCCCCCCCNc1cccc2c1CN(C1CCC(=O)NC1=O)C2=O (stereo not shown) [Compound I-17]
IC50 [1]: 12.3 nM | IC50 [2]: 11.2 nM | bromodomain interaction profile [3]: also BRD7 and members of the BET family | % Ctrl @ 1 μM [4]: 42 % Ctrl | % Ctrl @ 1 μM [5]: 5 % Ctrl | % Ctrl @ 1 μM [6]: 0 % Ctrl | % Ctrl @ 1 μM [7]: 68 % Ctrl | % Ctrl @ 1 μM [8]: 41 % Ctrl | % Ctrl @ 1 μM [9]: 84 % Ctrl | time to near complete BRD9 loss ([10]; MOLM-13, 100 nM): ≤ 1 h | return of BRD9 during treatment ([10]; MOLM-13, 100 nM, 24-hour treatment period): no detectable return | BRD9 protein level (immunoblot) ([10]; MOLM-13, 4 hour treatment, indicated concentrations, in words): effectively downregulate BRD9 over a broad range of concentrations; also recorded: effectively downregulating BRD9 protein over a broad range of concentrations | BRD4 degradation (immunoblot) [11]: Off target degradation of BRD4, observed at high concentrations | BRD9 degradation after pretreatment with excess I-BRD9 [12, 19]: prevented degradation | BRD9 degradation after pretreatment with excess lenalidomide [12, 19]: prevented degradation | BRD9 degradation with co-treatment with carfilzomib [12, 19]: Degradation was abolished | BRD9 levels after pretreatment with neddylation inhibitor (MLN-4924) [12, 19]: rescued BRD9 levels | BRD9 loss (immunoblot) ([12]; wild type MM.1S cells, 4 hour treatment, indicated doses): marked dose-dependent BRD9 loss | efficacy on viability [13]: comparable efficacy | BRD9:CRBN-DDB1 dimerization, comparison in words [14]: superior; also recorded: effectively induce biochemical association | BRD9:CRB9-DDB1 AUC [14, 20]: 80620 | BRD9:CRB9-DDB1 Cmax [14, 20]: 26.2 nM | formation of the BRD9:CRBN-DDB1 protein complex ([14]; relative to unmodified pomalidomide): significantly induce formation of the complex | formation of the BRD9:CRBN-DDB1 protein complex ([14]; relative to unmodified thalidomide): significantly induce formation of the complex | formation of the BRD4:CRBN-DDB1 protein complex [15]: effectively induce biochemical association | BRD9 degradation / cellular potency, in words [16]: superior | % Ctrl @ 1 μM [17]: 1.8 % Ctrl | IC50 [18]: 1710 nM
